Laboratory results as given in patent US7947734B2, “Substituted para-trifluoromethyl phenylate compounds and its preparation and use thereof” (Sinochem Corporation, priority 2005, dated 2011).

Tests used:
Myzus persicae = assay: Insecticidal activity, Airbrush spraying tower, mortality; conditions: 600 mg/L
Protocol: (§1) Technical samples were dissolved in acetone/methanol (1:1) and diluted to required concentration with water containing 0.1% of tween 80.
(§2) Armyworm (Leucania separata), diamondback moth (Plutella xylostella) culex mosquitoes (Culex pippens pallens), Myzus persicae (Myzus persicae and Carmine spider mite (Tetranychus cinnabarinus) were treated with Airbrush spraying tower, and culex mosquito was treated with dipping culture method. The pressure of Airbrush spraying tower was 10 psi (about 0.7 kg/cm2) and the amount of spraying was 0.5 ml. Mortality investigation of test insects was carried out 2 to 3 days after the treatment.

[1] = test system: wheat powdery mildew (Blumeria graminis); assay: Therapy activity against wheat powdery mildew on potted plants; format: in vivo
[2] = test system: cucumber downy mildew (Pseudoperonospora cubenis); assay: Fungicidal protective activity against cucumber downy mildew on potted plants; format: in vivo; conditions: 400 mg/L
[3] = test system: Carmine spider mite (Tetranychus cinnabarinus); assay: Acaricidal activity, Airbrush spraying tower, mortality
Protocol: as §1, §2

[4] = test system: wheat powdery mildew (Blumeria graminis); assay: Fungicidal protective activity against wheat powdery mildew on potted plants; format: in vivo
[5] = 0.19 mg/L, wheat powdery mildew
[6] = 0.39 mg/L, wheat powdery mildew
[7] = 0.78 mg/L, wheat powdery mildew
[8] = 1.56 mg/L, wheat powdery mildew
[9] = 3.13 mg/L, wheat powdery mildew
[10] = 6.25 mg/L, wheat powdery mildew
[11] = 12.5 mg/L, wheat powdery mildew

Row | SMILES | control against cucumber downy mildew [2] | Protective activity % one day [4, 5] | Protective activity % one day [4, 6] | Protective activity % one day [4, 7] | Protective activity % one day [4, 8] | Protective activity % one day [4, 9] | Protective activity % one day [4, 10] | control against wheat powdery mildew ([4]; 12.5 mg/L) | Protective activity % one day [4, 11] | Protective activity % one day ([4]; 25 mg/L, wheat powdery mildew) | control against wheat powdery mildew ([4]; 200 mg/L) | control against wheat powdery mildew ([4]; 400 mg/L) | further results
1 | COC=C(C(=O)OC)c1ccccc1COc1ccc(C(F)(F)F)cc1Cl [compound 1] | 100% | 30% | 55% | 90% | 100% | 100% | 100% | 100% | 100% | 100% | 100% | 100% | control of Myzus persicae (Myzus persicae): 100%; Therapy activity % 3 days ([1]; 1.56 mg/L): 50%; Therapy activity % 3 days ([1]; 3.125 mg/L): 80%; Therapy activity % 3 days ([1]; 6.25 mg/L): 100%; Therapy activity % 3 days ([1]; 12.5 mg/L): 100%; control of Carmine spider mite ([3]; 10 mg/L): 95%; control of Carmine spider mite ([3]; 50 mg/L): 100%; control of Carmine spider mite ([3]; 150 mg/L): 100%; control of Carmine spider mite ([3]; 600 mg/L): 100%
2 | CNC(=O)C(=NOC)c1ccccc1COc1ccc(C(F)(F)F)cc1Cl [compound 7] | 100% | 50% | 85% | 90% | 100% | 100% | 100% | 100% | 100% | 100% | 100% | 100% | 
3 | COC(=O)N(OC)c1ccccc1COc1ccc(C(F)(F)F)cc1Cl [compound 10] |  |  |  |  |  |  |  |  |  |  | more than 95% | 100% | 
4 | CO/N=C(/C(=O)OC)c1ccccc1COc1ccccc1C [kresoxin-methyl, reference compound] |  |  |  |  |  |  |  |  |  |  |  |  | inhibition at 1.56 µg/mL ([1]; Blumeria graminis, 72 h, 1.56 mg/L, read-out: Therapy activity % 3 days): 10%; inhibition at 3.125 µg/mL ([1]; Blumeria graminis, 72 h, 3.125 mg/L, read-out: Therapy activity % 3 days): 15%; inhibition at 6.25 µg/mL ([1]; Blumeria graminis, 72 h, 6.25 mg/L, read-out: Therapy activity % 3 days): 20%; inhibition at 12.5 µg/mL ([1]; Blumeria graminis, 72 h, 12.5 mg/L, read-out: Therapy activity % 3 days): 100%; inhibition at 0.19 µg/mL ([4]; Blumeria graminis, 24 h, 0.19 mg/L, wheat powdery mildew, read-out: Protective activity % one day): 0%; inhibition at 0.39 µg/mL ([4]; Blumeria graminis, 24 h, 0.39 mg/L, wheat powdery mildew, read-out: Protective activity % one day): 0%; inhibition at 0.78 µg/mL ([4]; Blumeria graminis, 24 h, 0.78 mg/L, wheat powdery mildew, read-out: Protective activity % one day): 15%; inhibition at 1.56 µg/mL ([4]; Blumeria graminis, 24 h, 1.56 mg/L, wheat powdery mildew, read-out: Protective activity % one day): 40%; inhibition at 3.13 µg/mL ([4]; Blumeria graminis, 24 h, 3.13 mg/L, wheat powdery mildew, read-out: Protective activity % one day): 70%; inhibition at 6.25 µg/mL ([4]; Blumeria graminis, 24 h, 6.25 mg/L, wheat powdery mildew, read-out: Protective activity % one day): 98%; inhibition at 12.5 µg/mL ([4]; Blumeria graminis, 24 h, 12.5 mg/L, wheat powdery mildew, read-out: Protective activity % one day): 100%; inhibition at 25 µg/mL ([4]; Blumeria graminis, 24 h, 25 mg/L, wheat powdery mildew, read-out: Protective activity % one day): 100%
5 | CON=C(C(=O)OC)c1ccccc1COc1ccc(C(F)(F)F)cc1Cl [compound 4] | 100% | 70% | 90% | 98% | 100% | 100% | 100% | 100% | 100% | 100% | 100% | 100% | control of Carmine spider mite ([3]; 600 mg/L): 100%
6 | CC(C)(C)c1ccc(CSc2cnn(C(C)(C)C)c(=O)c2Cl)cc1 [Pyridaben, reference compound] |  |  |  |  |  |  |  |  |  |  |  |  | control of Carmine spider mite ([3]; 10 mg/L): 95%
7 | COC=C(C(=O)OC)c1ccccc1Oc1cc(Oc2ccc(C(F)(F)F)cc2Cl)ncn1 [compound 16] |  |  |  |  |  |  |  |  |  |  |  | 100% | 
